Test results published in patent publication US8546409B2, “Methods of treatment for solid tumors” (priority 2009, dated 2013).
“Also recorded” adds a separate entry of the source.

What was measured:
p110α = p110α (Homo sapiens, UniProt P42336); test: Chick embryo fibroblast (CEF) transformation assay, p110α; format: cell-based; conditions: read-out: EC-50 for functional activity of p110α, highest concentration tested 2000 nM
Excerpt: Moreover, compound I has comparatively low activity on p110α in a cell-transformation system designed to measure functional activity of these kinases, but is a potent inhibitor of both p110β and p110δ in that assay. See Example 1. This chick embryo fibroblast (CEF) transformation system has been reported as a useful way to assess the functional activity of the PI3K signaling pathway. Denley, et al., “Oncogenic signaling of class I PI3K isoforms,” Oncogene, vol. 27(18), 2561-74 (2008). Transformation of CEF cells in the assay depends upon functional kinase activity. Kang, et al., Proc. Nat'l Acad. Sci. USA, vol. 103(5), 1289-94 (2006). The readout of this assay is based on the frequency of transformation of CEF cells exposed to viral vectors carrying a specific p110 isoform of interest.
Chick embryo fibroblasts (CEF) are transduced with viral stocks with versions of the human genes for the individual PI3K isoforms p110α, p110β, p110δ and p110γ. These transduced CEF lines are then plated in a growth medium where oncogenically transformed cells form foci that can then be stained and counted. […] Denley A, Kang S, Karst U and Vogt PK, “Oncogenic signaling of class 1 PI3K isoforms.” Oncogene (2008) 27: 2561-2574. FIG. 3 illustrates the readout of this assay.

DNA-PK = DNA-PK (Homo sapiens, UniProt P78527); test: Inhibition of kinase activity of other lipid kinases, DNA-PK; format: biochemical; conditions: read-out: IC-50 for inhibition of kinase activity, DNA-PK
T47D = test: Tumor cell culture growth, optical density at 459 nm (FIG. 7), T47D; format: cell-based; conditions: 5-10 micromolar
OVCAR-3 xenografts = test: Ovarian cancer cell xenografts in nu/nu mice (FIG. 8); format: in vivo; conditions: 30 mg/kg BID, 36 days, female nu/nu mice
Description: Female nu/nu mice bearing OVCAR-3 xenografts (human ovarian cancer cells) were maintained until tumor volume measured about 100 mm^3. At that point, treatment began with compound I at a rate of 30 mg/kg administered twice per day.

[1] = mouse
Excerpt: Bioavailability of Compound I upon oral administration is especially good; even compared to other quinazolinones of similar structures. For example, FIG. 6 illustrates that Compound I produces higher plasma concentrations of drug than another quinazolinone compound having a similar structure (Compound B). […] The degree of difference in oral bioavailability between Compound I and Compound B observed in this test is surprising.
Treatments of the invention typically involve administration of compound Ito a subject in need of treatment on a daily basis for at least one week or more than one week, often for 2-4 weeks, and sometimes for 1-3 months or more. The half-life of Compound I in vivo in mice and rats is several hours—see FIG. 6. It is thus sometimes desirable to administer compound I in multiple doses each day, in order to maintain efficacious plasma levels over a prolonged period of time. Administration may be done in two doses per day, or three doses per day, or in some embodiments, four doses per day or more, particularly when Compound I is administered orally. Alternatively, Compound I can be administered intravenously at a rate that maintains an efficacious plasma level for a prolonged period of time. Suitably, it would be administered at a rate to achieve a plasma level of at least about 1 micromolar, or at least 3 micromolar, or at least 5 micromolar.

in vivo = conditions: rat, 60 mg/kg/day
Description: Compound I was dosed at 60, 120, or 240 mg/kg/day administered as a single dose for up to 14 days in healthy rats. […] The peak concentration of compound I (Cmax) and area under the curve (AUC) for tolerated doses were higher than those observed with effective doses of Compound I in the xenograft model tumors in mice.

[2] = test system: NCI panel cancer cell lines; test: NCI panel of tumor cell assays, summary over cell lines; format: cell-based; conditions: for Cell line number: GI50 less than 2 micromolar
Excerpt: Compound I has also been tested in a battery of tumor cell assays known as the NCI panel. […] Using this measure, 1.8% of cell lines were particularly sensitive to Compound B at this level, while 39% were particularly sensitive to Compound I at the same concentration. […] Loss of PTEN activity often occurs in cancers, and enhances the sensitivity of a tumor to PI3K inhibitors. […] The following Table summarizes the cell lines found to be sensitive to Compound I and the known mutations in those cell lines.

NCI-H460 = test: NCI panel growth inhibition, NCI-H460; format: cell-based; conditions: Homo sapiens, Non-Small Cell Lung Cancer
Excerpt: (§1) Compound I has also been tested in a battery of tumor cell assays known as the NCI panel.

NCI-H522 = test: NCI panel growth inhibition, NCI-H522; format: cell-based; conditions: Homo sapiens, Non-Small Cell Lung Cancer
Excerpt: as §1

HCC-2998 = test: NCI panel growth inhibition, HCC-2998; format: cell-based; conditions: Homo sapiens, Colon Cancer
Excerpt: as §1

SW-620 = test: NCI panel growth inhibition, SW-620; format: cell-based; conditions: Homo sapiens, Colon Cancer
Excerpt: as §1

SF-268 = test: NCI panel growth inhibition, SF-268; format: cell-based; conditions: Homo sapiens, CNS Cancer
Excerpt: as §1

SF-295 = test: NCI panel growth inhibition, SF-295; format: cell-based; conditions: Homo sapiens, CNS Cancer
Excerpt: as §1

OVCAR-3 = test: NCI panel growth inhibition, OVCAR-3; format: cell-based; conditions: Homo sapiens, Ovarian
Excerpt: as §1

OVCAR-8 = test: NCI panel growth inhibition, OVCAR-8; format: cell-based; conditions: Homo sapiens, Ovarian
Excerpt: as §1

786-0 = test: NCI panel growth inhibition, 786-0; format: cell-based; conditions: Homo sapiens, Renal
Excerpt: as §1

A498 = test: NCI panel growth inhibition, A498; format: cell-based; conditions: Homo sapiens, Renal
Excerpt: as §1

CAKI-1 = test: NCI panel growth inhibition, CAKI-1; format: cell-based; conditions: Homo sapiens, Renal
Excerpt: as §1

UO-31 = test: NCI panel growth inhibition, UO-31; format: cell-based; conditions: Homo sapiens, Renal
Excerpt: as §1

BT-549 = test: NCI panel growth inhibition, BT-549; format: cell-based; conditions: Homo sapiens, Breast Cancer
Excerpt: as §1

Chain of p110α (P42336 whole entry, stated change not applied, canonical isoform): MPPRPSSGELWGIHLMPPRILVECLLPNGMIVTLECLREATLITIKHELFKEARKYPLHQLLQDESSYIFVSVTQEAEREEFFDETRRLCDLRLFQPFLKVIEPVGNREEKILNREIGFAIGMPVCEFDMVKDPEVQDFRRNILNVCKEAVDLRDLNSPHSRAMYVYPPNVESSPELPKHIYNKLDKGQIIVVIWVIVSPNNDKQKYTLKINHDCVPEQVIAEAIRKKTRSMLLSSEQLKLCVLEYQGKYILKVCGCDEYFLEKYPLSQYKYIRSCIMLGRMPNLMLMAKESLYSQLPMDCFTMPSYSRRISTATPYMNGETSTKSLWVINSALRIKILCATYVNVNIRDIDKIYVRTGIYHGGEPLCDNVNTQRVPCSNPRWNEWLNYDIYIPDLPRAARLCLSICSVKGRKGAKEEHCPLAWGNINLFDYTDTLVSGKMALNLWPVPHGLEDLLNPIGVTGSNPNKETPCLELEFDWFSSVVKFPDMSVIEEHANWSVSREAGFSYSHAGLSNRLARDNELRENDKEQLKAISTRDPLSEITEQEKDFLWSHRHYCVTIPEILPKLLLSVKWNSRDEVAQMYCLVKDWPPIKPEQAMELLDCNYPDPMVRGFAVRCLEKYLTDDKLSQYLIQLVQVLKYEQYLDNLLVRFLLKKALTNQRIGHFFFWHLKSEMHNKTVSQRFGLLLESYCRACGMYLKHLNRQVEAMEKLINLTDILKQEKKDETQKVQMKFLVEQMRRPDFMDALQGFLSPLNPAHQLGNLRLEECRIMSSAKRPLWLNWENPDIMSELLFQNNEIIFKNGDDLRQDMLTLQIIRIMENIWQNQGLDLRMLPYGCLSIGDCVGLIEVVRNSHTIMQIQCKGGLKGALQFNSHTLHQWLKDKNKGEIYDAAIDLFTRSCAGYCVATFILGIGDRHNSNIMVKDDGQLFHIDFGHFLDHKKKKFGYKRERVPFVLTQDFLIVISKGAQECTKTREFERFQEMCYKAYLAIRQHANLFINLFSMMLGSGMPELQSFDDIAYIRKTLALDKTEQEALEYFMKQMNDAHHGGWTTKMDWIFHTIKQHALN

In the case of `C[C@H](Nc1ncnc2[nH]cnc12)c1nc2ccc(F)cc2c(=O)n1-c1ccccc1` [Compound I], the EC50 (p110α) is reported as > 2 µM, the IC50 (DNA-PK) is reported as 13 µM and the “Inhibition of tumor cell culture growth” value (T47D) is reported as “strong inhibition of growth”. For the same compound, the “Tumor volume of OVCAR-3 xenograft” value (OVCAR-3 xenografts) was “the size of the existing tumor was actually reduced; also recorded: completely inhibited growth; also recorded: Tumor volume actually decreased”, the Half-life in vivo [1] was “several hours” and the “Peak plasma level compared to Compound B” value ([1]; in vivo, po) was “higher peak plasma level”. For the same compound, the “Plasma level maintained for several hours” value ([1]; in vivo, po, 20 mg/kg) was “about 500 ng/mL”, the AUC (in vivo) was 58 µg·h/mL and the Cmax (in vivo) was 7.3 µg/mL. For the same compound, the “% EC50 < 2 μM” value ([2]; Breast) was 62%, the Cell line number ([2]; Breast) was 5/8 and the “% EC50 < 2 μM” value ([2]; CNS) was 50%. The Cell line number ([2]; CNS) was 3/6, the “% EC50 < 2 μM” value ([2]; Colon) was 14% and the Cell line number ([2]; Colon) was 1/7. For the same compound, the “% EC50 < 2 μM” value ([2]; Melanoma) was 12%, the Cell line number ([2]; Melanoma) was 1/8 and the “Cell lines with mutations in PTEN inhibited” value ([2]; NCI panel cell lines known to have PTEN mutations) was 70%. For the same compound, the “% EC50 < 2 μM” value ([2]; NSCLC) was 11%, the Cell line number ([2]; NSCLC) was 1/9 and the “% EC50 < 2 μM” value ([2]; Ovarian) was 33%. The Cell line number ([2]; Ovarian) was 2/6, the Cell line number ([2]; Prostate) was 2/2 and the “% EC50 < 2 μM” value ([2]; Prostrate) was 100%. For the same compound, the “% EC50 < 2 μM” value ([2]; Renal) was 75%, the Cell line number ([2]; Renal) was 6/8 and the “Cell lines particularly sensitive (GI50 of 2 micromolar or less)” value ([2]; all NCI panel cell lines) was 39%. For the same compound, the GI50 (NCI-H460) was 25.7 µM, the GI50 (NCI-H522) was 51.8 µM and the GI50 (HCC-2998) was 32.4 µM. The GI50 (SW-620) was 69.3 µM, the GI50 (SF-268) was 1.89 µM and the GI50 (SF-295) was 1.81 µM. The GI50 (OVCAR-3) was 0.316 µM, the GI50 (OVCAR-8) was 44.6 µM and the GI50 (786-0) was 1.99 µM. The GI50 (A498) was 0.615 µM, the GI50 (CAKI-1) was 1.01 µM and the GI50 (UO-31) was 2.01 µM. It also gave a GI50 (BT-549) of 0.538 µM.
